Literature values as cited in patent publication US20250000936A1, “TREATMENT OF GEOGRAPHIC ATROPHY” (Apellis Pharmaceuticals, Inc., priority 2021, published 2025).

Test system: complement activation
Settings: complement inhibiting activity relative to C-terminally amidated compstatin; cited from earlier work
In the case of “Ac-ICVDhtQDWGAHRCT-COOH [Ac-V4Dht/H9A-OH]”, the Activity over compstatin is given as 5xmore.
For “H-GICV(6fW)QD(6fW)GAHRCTN-COOH (6-fluoro-Trp residues) [+G/V4(6fW)/W7(6fW)H9A+N-OH]”, the Activity over compstatin is listed as 126xmore.
In the case of “Ac-ICV(Bpa)QDWGAHRCT-COOH (N-acetyl, Bpa) [Ac-V4(Bpa)/H9A-OH]”, the Activity over compstatin is listed as 49xmore.
In the case of Ac-ICVVQDWGHHRCT-CONH2 [Ac-compstatin], the Activity over compstatin is listed as 3xmore.
For “Ac-ICVWQDWGAHRCT-CONH2 (Ac-ICVWQDWGAHRCT-NH2; cysteine pairing not given here) [Ac-V4W/H9A]”, the Activity over compstatin is listed as 45xmore.
In the case of “Ac-ICV(2-Igl)QDWGAHRCT-CONH2 (N-acetyl, C-amide, 2-Igl) [Ac-V42Igl/H9A]”, the Activity over compstatin is given as 39xmore.
In the case of “Ac-ICV(2-Igl)QDWGAHRCT-COOH (N-acetyl, 2-Igl) [Ac-V42Igl/H9A-OH]”, the Activity over compstatin is given as 37xmore.
In the case of “Ac-ICV(Bpa)QDWGAHRCT-CONH2 (N-acetyl, C-amide, Bpa) [Ac-V4(Bpa)/H9A]”, the Activity over compstatin is listed as 86xmore.
In the case of “Ac-ICVWQD(5fW)GAHRCT-CONH2 [Ac-V4W/W7(5fW)/H9A]”, the Activity over compstatin is listed as 121xmore.
For “Ac-ICV(1-Nal)QDWGAHRCT-COOH (N-acetyl, 1-Nal) [Ac V4(1-Nal)/H9A-OH]”, the Activity over compstatin is given as 30xmore.
In the case of “Ac-ICV(2-Nal)QDWGAHRCT-COOH (N-acetyl, 2-Nal) [Ac V4(2-Nal)/H9A-OH]”, the Activity over compstatin is given as 38xmore.
For Ac-ICVYQDWGAHRCT-CONH2 [Ac-V4Y/H9A], the Activity over compstatin is given as 14xmore.
For “Ac-ICVWQDWGAHRCdT-COOH [Ac-V4W/H9A/T13dT-OH]”, the Activity over compstatin is listed as 55xmore.
For “Ac-ICV(2-Nal)QDWGAHRCT-CONH2 (N-acetyl, C-amide, 2-Nal) [Ac-V4(2-Nal)/H9A]”, the Activity over compstatin is given as 99xmore.
